Where a SMILES comes first, the peptide text is derived from it. [ ]: non-standard residue; d: D form. ξ: configuration not given here. ξBip(2'-Et-4'-OMe) = CCc1cc(OC)ccc1-c1ccc(CC(N)C(=O)O)cc1; Arg(NO2) = N=C(NCCC[C@H](N)C(=O)O)N[N+](=O)[O-]; ξαMePhe(2,6-F2) = CC(N)(Cc1c(F)cccc1F)C(=O)O; ξαMePhe(2-F) = CC(N)(Cc1ccccc1F)C(=O)O; hhPhe = N[C@@H](CCCc1ccccc1)C(=O)O; hArg = N=C(N)NCCCC[C@H](N)C(=O)O; hCit = NC(=O)NCCCC[C@H](N)C(=O)O; Cit = NC(=O)NCCC[C@H](N)C(=O)O; Nle = CCCC[C@H](N)C(=O)O; Orn = NCCC[C@H](N)C(=O)O; Ac5c = NC1(C(=O)O)CCCC1; Ac3c = NC1(C(=O)O)CC1; Aib = CC(C)(N)C(=O)O
How the values were obtained:
Type in all cases: in vitro ADME
[1] = Stability of peptides in human plasma; conditions: human, plasma; for metabolised at 24 h, 2 μM: pH 7.8
Summary of the method: (§1)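 Peptides at 2 μM final incubated 0–24 h at 37 °C (50 mM triethanolamine-HCl, pH 7.8) in each matrix, matrix level set to degrade ~50% PTH(1-34) in 1 h; TFA-quenched, C18 HPLC at 206 nm with ESI-MS peak identification; percent degradation from peak areas at each time point.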

[2] = Stability of peptides in simulated gastric fluid (pH 1.5; HCl, NaCl and Pepsin); conditions: pH 1.5; for % degradation of peptides in 24 h when incubated with simulated gastric fluid: 2 μM; for half-life / half-life (t1/2) in simulated gastric fluid: simulated gi fluid
[3] = Stability of peptides in human liver microsomes; conditions: human, microsomes; for % degradation of peptides in 24 h when incubated with liver microsomes: 2 μM, pH 7.8
Summary of the method: as §1

[4] = Stability of peptides in simulated intestinal fluid (pH 7.5); conditions: pH 7.5; for half-life / half-life (t1/2) in simulated intestinal fluid: simulated gi fluid; for % degradation of peptides in 24 h when incubated with simulated intestinal fluid: 2 μM
Summary of the method: as §1

Row | SMILES | half-life [1] | metabolised at 24 h, 2 μM [1] | % degradation of peptides in 24 h when incubated with simulated gastric fluid [2] | half-life [2] | half-life (t1/2) in liver microsomes [3] | % degradation of peptides in 24 h when incubated with liver microsomes [3] | half-life [4] | % degradation of peptides in 24 h when incubated with simulated intestinal fluid [4] | half-life (t1/2) in simulated gastric fluid [2] | half-life [3] | half-life (t1/2) in simulated intestinal fluid [4]
1 | CCCC[C@H](NC(=O)C(C)(Cc1c(F)cccc1F)NC(=O)[C@H](CCC(N)=O)NC(=O)[C@@H](NC(=O)[C@H](CCC(=O)O)NC(=O)C(C)(C)NC(=O)[C@@H](NC(=O)C(C)(C)N)C(C)C)[C@@H](C)CC)C(=O)N[C@@H](Cc1c[nH]cn1)C(=O)N[C@@H](CCC(N)=O)C(=O)NC(C)(C)C(=O)NC(C)(C)C(=O)N[C@@H](CCCNC(=N)N[N+](=O)[O-])C(=O)NC(C)(Cc1ccccc1F)C(N)=O (some centres unmarked) [Seq. ID. 590] (H-[Aib]V[Aib]EIQ[ξαMePhe(2,6-F2)][Nle]HQ[Aib][Aib][Arg(NO2)][ξαMePhe(2-F)]-NH2) | > 24 h | 0% | 00% | > 24 h | (5) h | 35% | > 24 h | 00% |  |  | 
2 | CCCC[C@H](NC(=O)[C@H](CC(C)C)NC(=O)[C@H](CCC(N)=O)NC(=O)[C@@H](NC(=O)[C@H](CCC(=O)O)NC(=O)C1(NC(=O)[C@@H](NC(=O)C2(N)CC2)C(C)C)CC1)[C@@H](C)CC)C(=O)N[C@@H](Cc1c[nH]cn1)C(=O)N[C@@H](CCC(N)=O)C(=O)N[C@@H](CCCCNC(=N)N)C(=O)N[C@@H](C)C(=O)N[C@@H](CCCCN)C(=O)NC(Cc1ccc(-c2ccc(OC)cc2CC)cc1)C(=O)N[C@@H](CCCc1ccccc1)C(N)=O (some centres unmarked) [Seq. ID. 610] (H-[Ac3c]V[Ac3c]EIQL[Nle]HQ[hArg]AK[ξBip(2'-Et-4'-OMe)][hhPhe]-NH2) | 8 h | 71% | 14% |  |  | 78% |  | 40% | (8) h | 1 h | (6) h
3 | CCc1cc(OC)ccc1-c1ccc(CC(NC(=O)[C@H](CCCCN)NC(=O)[C@H](C)NC(=O)[C@H](CCCCNC(=N)N)NC(=O)[C@H](CCC(N)=O)NC(=O)[C@H](Cc2c[nH]cn2)NC(=O)[C@H](CCSC)NC(=O)[C@H](CC(C)C)NC(=O)[C@H](CCC(N)=O)NC(=O)[C@@H](NC(=O)[C@H](CCC(=O)O)NC(=O)C(C)(C)NC(=O)[C@@H](NC(=O)C2(N)CCCC2)C(C)C)[C@@H](C)CC)C(N)=O)cc1 (some centres unmarked) [Seq. ID. 650] (H-[Ac5c]V[Aib]EIQLMHQ[hArg]AK[ξBip(2'-Et-4'-OMe)]-NH2) | 8 h | 70% | 15% |  |  | 77% |  | 41% | (8) h | 1 h | (6) h
4 | CCCC[C@H](NC(=O)[C@H](CC(C)C)NC(=O)[C@H](CCC(N)=O)NC(=O)[C@@H](NC(=O)[C@H](CCC(=O)O)NC(=O)C1(NC(=O)[C@@H](NC(=O)C2(N)CC2)C(C)C)CC1)[C@@H](C)CC)C(=O)N[C@@H](Cc1c[nH]cn1)C(=O)N[C@@H](CCC(N)=O)C(=O)N[C@@H](CCCCNC(=N)N)C(=O)N[C@@H](C)C(=O)N[C@@H](CCCNC(=N)N[N+](=O)[O-])C(=O)NC(Cc1ccc(-c2ccc(OC)cc2CC)cc1)C(=O)N[C@@H](CCCc1ccccc1)C(N)=O (some centres unmarked) [Seq. ID. 690] (H-[Ac3c]V[Ac3c]EIQL[Nle]HQ[hArg]A[Arg(NO2)][ξBip(2'-Et-4'-OMe)][hhPhe]-NH2) | 8 h | 70% | 12% |  |  | 78% |  | 42% | (8) h | 1 h | (6) h
5 | CCCC[C@H](NC(=O)C(C)(Cc1c(F)cccc1F)NC(=O)[C@H](CCC(N)=O)NC(=O)[C@@H](NC(=O)[C@H](CCC(=O)O)NC(=O)C1(NC(=O)[C@@H](NC(=O)C2(N)CCCC2)C(C)C)CC1)[C@@H](C)CC)C(=O)N[C@@H](Cc1c[nH]cn1)C(=O)N[C@@H](CCC(N)=O)C(=O)N[C@@H](CCCCNC(=N)N)C(=O)N[C@@H](C)C(=O)N[C@@H](CCCNC(=N)N[N+](=O)[O-])C(=O)NC(C)(Cc1c(F)cccc1F)C(=O)N[C@@H](CCCc1ccccc1)C(N)=O (some centres unmarked) [Seq. ID. 710] (H-[Ac5c]V[Ac3c]EIQ[ξαMePhe(2,6-F2)][Nle]HQ[hArg]A[Arg(NO2)][ξαMePhe(2,6-F2)][hhPhe]-NH2) | > 24 h | 0% | 00% | > 24 h | (5) h | 35% | > 24 h | 00% |  |  | 
6 | CCCC[C@H](NC(=O)C(C)(Cc1c(F)cccc1F)NC(=O)[C@H](CCC(N)=O)NC(=O)[C@@H](NC(=O)[C@H](CCC(=O)O)NC(=O)C1(NC(=O)[C@@H](NC(=O)C(C)(C)N)C(C)C)CC1)[C@@H](C)CC)C(=O)N[C@@H](Cc1c[nH]cn1)C(=O)N[C@@H](CCC(N)=O)C(=O)N[C@@H](CCCCNC(=N)N)C(=O)N[C@@H](C)C(=O)N[C@@H](CCCNC(=N)N[N+](=O)[O-])C(=O)NC(C)(Cc1ccccc1F)C(=O)N[C@@H](CCCc1ccccc1)C(N)=O (some centres unmarked) [Seq. ID. 720] (H-[Aib]V[Ac3c]EIQ[ξαMePhe(2,6-F2)][Nle]HQ[hArg]A[Arg(NO2)][ξαMePhe(2-F)][hhPhe]-NH2) | > 20 h | 10% | 50% | 4 h |  | 86% | > 24 h | 00% |  | 2 h | 
7 | CCCC[C@H](NC(=O)[C@H](CC(C)C)NC(=O)[C@H](CCC(N)=O)NC(=O)[C@@H](NC(=O)[C@H](CCC(=O)O)NC(=O)C(C)(C)NC(=O)[C@@H](NC(=O)C(C)(C)N)C(C)C)[C@@H](C)CC)C(=O)N[C@@H](Cc1c[nH]cn1)C(=O)N[C@@H](CCC(N)=O)C(=O)N[C@@H](CCCCNC(=N)N)C(=O)N[C@@H](C)C(=O)N[C@@H](CCCNC(=N)N)C(=O)NC(Cc1ccc(-c2ccc(OC)cc2CC)cc1)C(=O)N[C@@H](CCCc1ccccc1)C(N)=O (some centres unmarked) [Seq. ID. 730] (H-[Aib]V[Aib]EIQL[Nle]HQ[hArg]AR[ξBip(2'-Et-4'-OMe)][hhPhe]-NH2) | > 22 h | 5% | 55% | 4 h |  | 84% | > 24 h | 00% |  | 2 h | 
8 | CCCC[C@H](NC(=O)[C@H](CC(C)C)NC(=O)[C@H](CCC(N)=O)NC(=O)[C@@H](NC(=O)[C@H](CCC(=O)O)NC(=O)C(C)(C)NC(=O)[C@@H](NC(=O)C(C)(C)N)C(C)C)[C@@H](C)CC)C(=O)N[C@@H](Cc1c[nH]cn1)C(=O)N[C@@H](CCC(N)=O)C(=O)N[C@@H](CCCN)C(=O)N[C@@H](C)C(=O)NC(C)(C)C(=O)NC(Cc1ccc(-c2ccc(OC)cc2CC)cc1)C(=O)N[C@@H](CCCc1ccccc1)C(N)=O (some centres unmarked) [Seq. ID. 750] (H-[Aib]V[Aib]EIQL[Nle]HQ[Orn]A[Aib][ξBip(2'-Et-4'-OMe)][hhPhe]-NH2) | > 23 h | 9% | 45% | 4 h |  | 85% | > 24 h | 00% |  | 2 h | 
9 | CCCC[C@H](NC(=O)[C@H](CC(C)C)NC(=O)[C@H](CCC(N)=O)NC(=O)[C@@H](NC(=O)[C@H](CCC(=O)O)NC(=O)C(C)(C)NC(=O)[C@@H](NC(=O)C(C)(C)N)C(C)C)[C@@H](C)CC)C(=O)N[C@@H](Cc1c[nH]cn1)C(=O)N[C@@H](CCC(N)=O)C(=O)N[C@@H](CCCCNC(N)=O)C(=O)NC(C)(C)C(=O)NC(C)(C)C(=O)NC(Cc1ccc(-c2ccc(OC)cc2CC)cc1)C(=O)N[C@@H](CCCc1ccccc1)C(N)=O (some centres unmarked) [Seq. ID. 790] (H-[Aib]V[Aib]EIQL[Nle]HQ[hCit][Aib][Aib][ξBip(2'-Et-4'-OMe)][hhPhe]-NH2) | > 24 h | 0% | 43% | 4 h |  | 84% | > 24 h | 00% |  | 2 h | 
10 | CCCC[C@H](NC(=O)[C@H](CC(C)C)NC(=O)[C@H](CCC(N)=O)NC(=O)[C@@H](NC(=O)[C@H](CCC(=O)O)NC(=O)C(C)(C)NC(=O)[C@@H](NC(=O)C1(N)CCCC1)C(C)C)[C@@H](C)CC)C(=O)N[C@@H](Cc1c[nH]cn1)C(=O)N[C@@H](CCC(N)=O)C(=O)NC(C)(Cc1c(F)cccc1F)C(=O)NC(C)(C)C(=O)N[C@@H](CCCNC(N)=O)C(=O)NC(Cc1ccc(-c2ccc(OC)cc2CC)cc1)C(=O)N[C@@H](CCCc1ccccc1)C(N)=O (some centres unmarked) [Seq. ID. 805] (H-[Ac5c]V[Aib]EIQL[Nle]HQ[ξαMePhe(2,6-F2)][Aib][Cit][ξBip(2'-Et-4'-OMe)][hhPhe]-NH2) | > 24 h | 0% | 49% | 4 h |  | 82% | > 24 h | 00% |  | 2 h | 

— patent publication US8383581B2, “Short-chain peptides as parathyroid hormone (PTH) receptor agonist” (Cadila Healthcare Limited, priority 2009, dated 2013)
